Legend:
Format in all cases: biochemical
AMPK = AMPK 33P kinase assay
Method: All assays (25.5 μl) were carried out at room temperature (21° C.) and were linear with respect to time and enzyme concentrations under the conditions used. Assays were performed for 30 minutes except assays for LCK and PKB which were performed for 15 minutes using Multidrop Micro reagent dispensers (Thermo Electron Corporation, Waltham, Mass. 02454, USA) in a 96-well format. The concentration of […] [γ-^33P] ATP (800 cpm/pmol) in the assays was one of three concentrations (5, 20 or 50 μM) in order to be at or below Km for ATP for the enzyme. Assays were initiated with MgATP and stopped by addition of 5 μl of 0.5M orthophosphoric acid. Assays were then harvested onto P81 filterplates using a unifilter harvester (PerkinElmer, Boston, Mass. 02118, USA), with a wash buffer of 50 mM orthophosphoric acid. Filterplates were then air dried overnight. 10 μl of Microscint O was added per well prior to counting for radioactivity.
MKK1, JNK/SAPK1c, SAPK2a/p38, SAPK2b/p38β2, SAPK3/p38γ, SAPK4/p38δ, MAPK2/ERK2, MAPKAP-K1β, MAPKAP-K2, MSK1, PRAK, PKA, PKCα, PDK1, SGK, p70S6K, GSK3β, ROCK-II, PRK2, AMPK, CHK1, CHK2, CK2, PHK, LCK, were assayed according to Davies et al., (Davies, S. P., Reddy, H., Caivano, M. and Cohen, P. Biochem. J. 351, 95-105, 2000.
CSK and CDK2/cyclinA, were assayed according to Bain et al. (Bain J, McLauchlan H, Elliott M, Cohen P. Biochem J. 371, 199-204, 2003., except that ATP concentrations were either 5, 20 or 50 micromolar so that they were at or below the Km for ATP. The ATP concentrations used were as follows, 5 μM for assays of MKK1, SAPK3, SAPK4, GSK3β, PRK2 CK2 20 μm for assays of JNK, SAPK2β, MAPKAP-K2, MSK1, PRAK, PKA, […], PDK1, SGK, p70S6K, ROCK-II, CHK1, CHK2, CSK, CDK2, and 50 μM for assays of SAPK2a, MAPK2/ERK2, AMPK, LCK, PHK and MAPKAP-K1β.

DYRK2 = DYRK2 (Homo sapiens, UniProt Q92630); test: DYRK2 33P kinase assay (analogous to DYRK1a); details: ATP at 50 μM; half log dilutions starting at 100 μM
Method: (§1) DYRK1A (5-20 mU of diluted in 50 mM Tris pH 7.5, 0.1 mM EGTA) was assayed against Woodtide ([…]) in a final volume of 25.5 μl containing 50 mM Tris pH 7.5, 0.1 mM EGTA, 350 uM substrate peptide, 10 mM magnesium acetate and 0.5 μl inhibitor and incubated at room temperature for 5 mins, followed by the addition of 0.05 mM [33P-gamma-ATP] (50-1000 cpm/pmole) and incubated for 30 mins at room temperature. Assays were stopped by addition of 5 μl of 0.5 M (3%) orthophosphoric acid then harvested onto P81 Unifilter plates with a wash buffer of 50 mM orthophosphoric acid. Filterplates were then air dried overnight. 10 μl of Microscint O was added per well prior to counting for radioactivity.
DYR2 and DYRK3 were assayed in an analogous manner to that described above for DYRK1a.

DYRK3 = DYRK3 (Homo sapiens, UniProt O43781); test: DYRK3 33P kinase assay (analogous to DYRK1a); details: ATP at 50 μM; half log dilutions starting at 100 μM
Method: as §1

Chain of DYRK3 (O43781 whole entry, species assumed): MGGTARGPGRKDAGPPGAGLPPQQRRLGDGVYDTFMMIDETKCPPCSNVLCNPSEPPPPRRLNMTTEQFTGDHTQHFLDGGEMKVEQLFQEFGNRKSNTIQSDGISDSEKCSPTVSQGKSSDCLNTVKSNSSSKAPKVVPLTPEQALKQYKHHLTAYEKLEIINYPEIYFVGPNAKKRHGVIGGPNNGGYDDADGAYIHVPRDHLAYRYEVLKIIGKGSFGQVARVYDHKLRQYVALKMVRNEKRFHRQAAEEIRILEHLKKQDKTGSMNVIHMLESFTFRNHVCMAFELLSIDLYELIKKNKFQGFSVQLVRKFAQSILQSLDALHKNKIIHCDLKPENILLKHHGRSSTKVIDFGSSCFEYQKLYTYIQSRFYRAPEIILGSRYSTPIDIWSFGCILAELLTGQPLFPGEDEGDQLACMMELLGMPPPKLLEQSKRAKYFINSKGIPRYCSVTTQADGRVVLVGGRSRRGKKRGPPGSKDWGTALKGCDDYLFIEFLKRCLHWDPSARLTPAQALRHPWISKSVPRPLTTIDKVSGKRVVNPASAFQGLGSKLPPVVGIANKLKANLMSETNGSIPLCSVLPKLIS
Chain of DYRK2 (Q92630 whole entry, species assumed): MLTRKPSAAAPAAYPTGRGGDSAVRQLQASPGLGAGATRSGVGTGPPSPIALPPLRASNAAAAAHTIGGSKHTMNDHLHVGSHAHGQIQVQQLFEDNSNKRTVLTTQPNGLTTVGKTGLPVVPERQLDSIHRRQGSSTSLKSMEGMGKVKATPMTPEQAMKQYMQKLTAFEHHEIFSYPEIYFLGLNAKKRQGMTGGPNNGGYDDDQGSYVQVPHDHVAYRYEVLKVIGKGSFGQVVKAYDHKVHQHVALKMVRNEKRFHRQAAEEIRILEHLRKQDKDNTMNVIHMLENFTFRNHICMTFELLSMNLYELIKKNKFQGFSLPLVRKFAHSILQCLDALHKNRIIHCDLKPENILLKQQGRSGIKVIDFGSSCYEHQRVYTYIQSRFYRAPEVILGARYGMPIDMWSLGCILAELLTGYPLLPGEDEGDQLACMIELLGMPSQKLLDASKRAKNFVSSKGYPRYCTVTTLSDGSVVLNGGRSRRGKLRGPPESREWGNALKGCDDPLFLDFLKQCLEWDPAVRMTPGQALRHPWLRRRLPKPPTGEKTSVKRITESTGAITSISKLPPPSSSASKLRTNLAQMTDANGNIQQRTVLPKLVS

Row | SMILES | AMPK activity as percentage of control without inhibitor (AMPK; inhibitor 1 μM) | AMPK activity as percentage of control without inhibitor (AMPK; inhibitor 10 μM) | IC50 (DYRK2) | IC50 (DYRK3)
1 | COc1ccc2c3c([nH]c2c1)C(C)=NCC3 [Harmaline] | 97% | 83% |  | 
2 | COc1ccc2c(c1)[nH]c1c(C)nccc12 [Harmine] | 98% | 103% | 0.9 µM | 0.8 µM
3 | CC1=NCCc2c1[nH]c1cc(O)ccc21 [Harmalol] | 92% | 52% |  | 

Source: patent publication US20100063085A1, “METHOD OF TREATING LEARNING IMPAIRMENT IN DOWN'S SYNDROME SUBJECTS” (University Court of The University of Dundee, priority 2008, published 2010)
